Here are results for four compounds from PMC9822769, “The Strange Case: The Unsymmetric Cisplatin-Based Pt(IV) Prodrug [Pt(CH3COO)Cl2(NH3)2(OH)] Exhibits Higher Cytotoxic Activity with respect to Its Symmetric Congeners due to Carrier-Mediated Cellular Uptake” (Bioinorganic Chemistry and Applications, 2022).

Broadly, the IC50 is the concentration that gives 50% inhibition. A high value points to lower potency.

For one series, the system named is MM98. The series can be described thus: Resazurin reduction cell viability assay, MM98. It is filed as cell-based, human. Particulars: 72 h of treatment; mean ± sd. How it is done:
(§1) The compounds under investigation were tested on a panel of commercial human cancer cell lines: ovarian endometrioid adenocarcinoma A2780 (ICLC HTL98008), its cisplatin-resistant variant A2780cisR (ECACC 93112517), colon carcinoma HCT 116 (ECACC 91091005), breast invasive ductal carcinoma MCF7 (ECACC 86012803), embryonal carcinoma NTERA-2 clone D1 (also known as NT2/D1, ICLC HTL97025), and lung adenocarcinoma A549 (ICLC HTL03001). Furthermore, a cell line derived from the pleural effusion of a patient with untreated malignant pleural mesothelioma (MPM) was added to the panel, namely, MM98 (sarcomatoid phenotype). Commercial cells were purchased from the European Collection of Authenticated Cell Cultures (ECACC, UK) or the Interlab Cell Line Collection (ICLC, Genoa, Italy), while the MM98 cell line was obtained from the Pathology Unit of the National Hospital of Alessandria (Italy).
(§2) The following media were used to grow the cells: RPMI 1640 (for A2780, A2780cisR, NT2/D1, and A549 cells), DMEM (for MCF7 cells), DMEM supplemented with nonessential amino acids (for MM98 cells), and McCoy's 5A (for HCT 116 cells). All media contained L-glutamine (2 mM) and were added with penicillin (100 IU·mL^−1), streptomycin (100 mg·L^−1), and 10% heat inactivated FBS. To maintain resistance in A2780cisR cells, cisplatin (1 μM) was added to the medium every two passages.
(§3) Continuous treatments (CT) were carried out at 37°C in a humidified chamber with 5% CO2. Cisplatin was dissolved in a 0.9% w/v NaCl aqueous solution and brought to pH = 3 with HCl (final stock concentration 1 mM). The Pt(IV) Complexes 1–3 were dissolved in milliQ water (final stock concentration 5 mM) and stored at −20°C. The stock concentration was confirmed with inductively coupled plasma-mass spectrometry (ICP-MS) measurements. The mother solutions were diluted in a complete medium to the required concentration.
(§4) To assess the growth inhibition of the compounds under investigation, a cell viability test (i.e., the resazurin reduction assay) was used. […] At the end of the treatment (72 h), viability was evaluated with 100 μg·mL^−1 resazurin (Acros Chemicals, France) in a fresh medium for 1 h at 37°C, and the amount of the reduced product, resorufin, was measured by fluorescence (excitation λ = 535 nm, emission λ = 595 nm) with a Tecan Infinite F200Pro plate reader (Tecan, Austria). In each experiment, cells were challenged with drug candidates at different concentrations, and the final data were calculated from at least three replicates of the same experiment performed in triplicate. The fluorescence of 8 wells containing a medium without cells was used as a blank. Fluorescence data were normalized to 100% cell viability for nontreated cells. […]
On the technique in general: Resazurin is reduced to fluorescent resorufin, in cell work by metabolically active cells.

For another series, the system named is NT2-D1. Nature of the series: Resazurin reduction cell viability assay, NT2-D1. It is filed as cell-based, human. The note with it: 72 h of treatment; mean ± sd. How it is done: as §1, §2, §3, §4
A further series deals with A549. The series can be described thus: Resazurin reduction cell viability assay, A549. It is filed as cell-based, human. Particulars: 72 h of treatment; mean ± sd. How it is done: as §1, §2, §3, §4
Series [1] relates to panel of human cancer cell lines. The series can be described thus: Antiproliferative activity, panel of human cancer cell lines (average). It is filed as cell-based. Particulars: 72 h; for IC50: wild cell panel. How it is done: as §1
The following media were used to grow the cells: RPMI 1640 (for A2780, A2780cisR, NT2/D1, and A549 cells), DMEM (for MCF7 cells), DMEM supplemented with nonessential amino acids (for MM98 cells), and McCoy's 5A (for HCT 116 cells). […]
as §4

The next series deals with A2780. The series can be described thus: Resazurin reduction cell viability assay, A2780. The note with it: 72 h of treatment; mean ± sd. It is filed as cell-based, human. How it is done: as §1, §2, §3, §4
Series [2] can be described thus: Immobilized artificial membrane (IAM) chromatography, log KW. It is filed as physicochemical. The note with it: IAM column; log k′ extrapolated to fully aqueous mobile phase. How it is done:
Retention times, tR, were measured on two columns: (i) a standard C18 column (Phenomenex Phenosphere-NEXT, 250 × 4.6 mm, 5 μm) and (ii) an IAM.PC.DD.2 column (Regis, 10 cm × […], 10 μm packing 300 Å pore size), prepared by covalently bonding cell-membrane-forming phospholipids to silica. On (i), a chromatogram was performed for each complex (0.25 mM) in a fixed eluent composition (30% methanol/70% aqueous 15 mM formic acid; flow rate 0.5 mL·min^−1) using a Waters HPLC-MS instrument (equipped with an Alliance 2695 separation module, a 2487 dual lambda absorbance detector, and a 3100 mass detector). The UV-vis detector was set at 210 nm. In (ii), the mobile phase consisted of 20 mM ammonium acetate buffer at pH 6.9 and acetonitrile flowing at 1 mL·min^−1. The samples were dissolved in the mobile phase in a concentration range of 50–100 μg·mL^−1. An HPLC Varian ProStar instrument equipped with a 410 autosampler, a PDA 335 LC detector, and Galaxie Chromatography Data System Version 1.9.302.952 was used.
The different tRs were used to calculate log k′, which is the logarithm of the retention factor k′ = (tR − t0)/t0, where t0 is the column dead time (i.e., the tR of KCl or citric acid used as the internal reference for (i) and (ii), respectively).
In the case of IAM, the log KW values were calculated by an extrapolation method. Log k′ values were determined at a minimum of three different percentages of acetonitrile (ϕ) in the mobile phases (from 10 to 50%, v/v), and the intercept values of the linear relationships between log k′ and ϕ values were assumed as log KW [65, 66].
Immobilized artificial membrane (IAM) chromatography is a complementary technique for evaluating the interaction of a drug with the cellular membrane. In this technique, the stationary silica phase is covalently bonded to phospholipids, giving a material that is more similar to the cell membrane than the simpler aliphatic chains of the RP-HPLC columns. The log KW values (i.e., log k′ values extrapolated at fully aqueous mobile phase) show the same trend for the three Pt(IV) complexes (log KW = −0.64, −1.06, −0.96, and −0.83 for cisplatin, 1, 2, and 3, respectively) (Table 1).

The nature of series [3]: Stability in cell culture medium (HPLC-MS). Particulars: 72 h, 37°C, dark, RPMI 1640 + 10% FBS, 100 μM. It is filed as physicochemical. How it is done:
The stability in the solution of Complexes 1–3 (100 μM) was studied by aging the compounds for 72 h at 37°C in the dark in the same cell culture medium employed for the A2780 cell line (i.e., RPMI 1640 medium added with 10% fetal bovine serum, FBS). The area of the chromatographic peaks of the Pt complexes was monitored in HPLC-MS, using a 70 : 30 mixture of 15 mM aqueous HCOOH and CH3OH as the mobile phase (see Section 2.3, settings i), for further instrumental details). ESI mass spectra, recorded using cone and capillary voltages of +30 V (positive ion mode) and 2.70 kV, were used to confirm the identity of the species.

Details of series [4]: method as in PMID 32296997. Particulars: vs. Ag/AgCl, 3M KCl, glassy carbon electrode, scan rate 0.2 V·s^−1; cited from earlier work.

As for `N.N.[Cl][Pt][Cl]` [Cisplatin, (SP-4-2)-diamminedichloridoplatinum(II)], the IC50 in the series with MM98 is 3.2 ± 1.02 µM; in the series with NT2-D1, 0.1 ± 0.04 µM; with A549, 3.8 ± 0.7 µM; in series [1] it was 2.72 µM; in the series on A2780, 0.48 ± 0.12 µM. Moreover, the “Log KW” value in series [2] is −0.64.

As to `N.N.[OH][Pt]([OH])([Cl])[Cl]` [Complex 1, (OC-6-33)-diamminedichloridodihydroxidoplatinum(IV)], the “remaining intact, % of the original HPLC peak” value in series [3] is more than 95%. Also, the 50% inhibitory concentration (IC50) in the series on MM98 was more than 100 µM; in the series on NT2-D1 it was 1.44 ± 0.16 µM; in the series on A549 it was 48.2 ± 27.7 µM; in the series with A2780, 3.71 ± 1.93 µM. The “E p (reduction peak potential)” value in series [4] is given as −0.815 V. For the same compound, the “Log KW” value in series [2] is on record as −1.06.

Regarding `CC(=O)[O][Pt]([OH])([Cl])[Cl].N.N` [Complex 2, (OC-6-44)-acetatodiamminedichloridohydroxidoplatinum(IV)], the partial hydrolysis result in series [3] is “approximately 40%”. Moreover, the IC50 in the series with MM98 was 3.67 ± 1.32 µM; with NT2-D1 it was 0.21 ± 0.08 µM; in the series with A549 it was 3.11 ± 0.74 µM; in series [1] it was 2.91 µM; in the series on A2780, 0.16 ± 0.05 µM. In addition, the “potency, times higher than those of 1 and 3” value in series [1] (panel of human cancer cell lines) is 10–100 times. Moreover, the “E p (reduction peak potential)” value in series [4] is listed as −0.618 V. The “Log KW” value in series [2] is −0.96.

Consider `CC(=O)[O][Pt]([NH2])([NH2])([Cl])([Cl])[O]C(C)=O` [Complex 3, (OC-6-33)-diamminedichloridodiacetatoplatinum(IV)], for which, in series [3], the “remaining intact, % of the original HPLC peak” value is recorded as more than 85%. Besides, the IC50 with MM98 is more than 100 µM; in the series with NT2-D1, 4.3 ± 1.13 µM; in the series with A549 it was 78 ± 17.7 µM; in the series with A2780, 12.1 ± 5.2 µM. The “E p (reduction peak potential)” value in series [4] was −0.486 V. Also, the “Log KW” value in series [2] is listed as −0.83.
